Measured values published in publication PMC8777946, “New Analogs of Polyamine Toxins from Spiders and Wasps: Liquid Phase Fragment Synthesis and Evaluation of Antiproliferative Activity” (Molecules, 2022).
Read-outs that look alike come from different tables or passages of the source.

What was measured:
[1] = tested on: MCF-7 breast cancer cells; assay: Antiproliferative activity on MCF-7 breast cancer cells (24 h, cell count or MTT); format: cell-based; conditions: for IC50: read-out: IC50 MCF-7
Protocol: (§1) The antiproliferative activity of the synthesized compounds was evaluated using MCF-7 and ΜDA-MB-231 breast carcinoma cells. MCF-7 cells are characterized by epithelial morphology, low metastatic potential, and low aggressiveness, and are estrogen receptor alpha (ERα)-positive, whereas MDA-MB-231cells are characterized by mesenchymal morphology, high metastatic potential, and high aggressiveness, and are ERβ-positive. The cells were treated for 24 h with compounds 1–10 in a range of concentrations, from 0 to 200 or 400 μM. In addition, the cells were treated with acid 21 alone and an equimolar mixture of acid 21 and Spd (the PA substructure of conjugate 2), to determine the effect of conjugation on the antiproliferative activity. The estimated IC50 values for these compounds are provided in Table 1 (see also Supplementary Material, Table S1). For the sake of comparison, the ΙC50 values of PATs HO-416b and Agel 416, determined previously, are included in Table 1. Calculated LogD values at pH 7.4, the physiological pH of blood serum, using ChemAxon’s Chemicalize platform are also included in Table 1.
(§2) MCF-7 and MDA-MB-231 breast cancer cell lines were purchased from the American Type Culture Collection (ATCC). All cells were routinely cultured in a humidified 95% air/5% CO2 incubator at 37 °C in complete medium Dulbecco’s Modified Eagle’s Medium (DMEM) supplemented with 10% (v/v) fetal bovine serum (FBS) 1.0 mM sodium pyruvate, 2 mM l-glutamine, and 100 IU/mL penicillin. The synthesized compounds were dissolved in ddH2O (or DMSO for compound […] and the equimolar mixture of compounds […] and Spd) at a final concentration of 10 mM and further dilutions were conducted with culture medium.
(§3) MCF-7 and ΜDA-MB-231 breast cancer cells were seeded in 12-well plates and were allowed to grow up to 60–70% confluence. After renewing the culture medium, cancer cells were treated for 24 h in serum-containing culture medium with compounds 1–10 in a range of concentrations, from 0 to 200 or 400 μM. In addition, cells were treated with acid 21 alone and an equimolar mixture of acid 21 and Spd in order to determine the effect of conjugation on the antiproliferative activity. Then, the surviving breast cancer cells were measured, either manually (for compounds Agel 416, HO-416b, 1-3, 6-7) or by measuring the absorbance following an MTT assay (for compounds 4-5, 8-10, 21 and 21+Spd), as described below in detail. The percentage of live cells was plotted against the log values of compound concentrations, and a non-linear fit plot was used to estimate the IC50 value for each compound.

[2] = tested on: MDA-MB-231 breast cancer cells; assay: Antiproliferative activity on MDA-MB-231 breast cancer cells (24 h, cell count or MTT); format: cell-based; conditions: for IC50: read-out: IC50 MDA-MB-231; for times less cytotoxic to the MDA-MB-231 cells than the MCF-7 cells: ratio of IC50 values
Protocol: as §1, §2, §3

in vitro = format: cell-based; conditions: human, 24 h, MTT, read-out: % viability of MCF 12A
Protocol: (§4) The IC50 values of the tested compounds are summarized in Table 2 (see also Supplementary Material, Table S2).
(§5) […]. The chemical compounds were reconstituted in DMSO.
(§6) For the MTT [3-(4,5-dimethylthiazol-2-yl)-2,5-diphenyltetrazolium bromide] assay, cells were seeded in a 96-well plate (26.000 cells/well) for 48 h. Then, after overnight starvation through serum deprivation, cells were incubated for 24 h, with the chemical compounds at 100, 10, 1, and 0.1 μM concentrations in the MCF-12A culture medium deprived of serum. Next, MTT (5 mg/mL in sterile PBS) was added in an amount of 10% in the culture media volume for 4-h cell incubation at 37 °C. Subsequently, an MTT solubilization solution was added, in an amount equal to the original culture media volume (100 μL/well), and the formazan crystals were dissolved through thorough pipetting. The spectrophotometric measure of cells’ viability was performed in a Tecan (SPARK) spectrophotometer at an absorbance wavelength of 570 nm. Incubation with H2O2 was established as cytotoxicity positive control. The percentage of viability for each sample was calculated with respect to cells incubated with MCF-12A culture media (without serum) containing 2% DMSO (negative cytotoxicity control).

[3] = tested on: MCF-12A normal epithelial mammary cells; assay: cells; format: cell-based; conditions: for IC50: Homo sapiens, MCF-12A, 24 h incubation, serum-free medium, MTT; for selectivity index (SI) for the MCF-7 cells: IC50 MCF-12A versus IC50 MCF-7; for selectivity index (SI) for the MDA-MB-231 cells: IC50 MCF-12A versus IC50 MDA-MB-231
Protocol: as §4, §5, §6

[4] = tested on: MCF-7 breast cancer cells; conditions: 24 h treatment; ± SD; reference PATs, determined previously; cited from earlier work
[5] = tested on: MDA-MB-231 breast cancer cells; conditions: 24 h treatment; ± SD; reference PATs, determined previously; cited from earlier work
[6] = Homo sapiens, MCF7, 24 h, 24 h treatment, serum-containing medium, manual count (1-3, 6-7) or MTT (4-5, 8-10, 21, 21+Spd), ± SD, tested as trifluoroacetate salts
[7] = Homo sapiens, MDA-MB-231, 24 h, 24 h treatment, serum-containing medium, manual count (1-3, 6-7) or MTT (4-5, 8-10, 21, 21+Spd), ± SD, tested as trifluoroacetate salts
[8] = 24 h treatment, serum-containing medium, manual count (1-3, 6-7) or MTT (4-5, 8-10, 21, 21+Spd), ± SD, tested as trifluoroacetate salts

Compound: C#CC[C@H](NC(=O)c1ccc(C2(C(F)(F)F)N=N2)cc1)C(=O)NCCCNCCCNCCCCN [Compound 10]
- IC50 [1, 6]: 2.81 ± 1.64 µM
- IC50 [2, 7]: > 200 µM

Compound: CCCC(=O)N[C@H](C(=O)NCCCNCCCCNCCCN)[C@@H](C)O [Compound 5]
- IC50 [1, 6]: > 400 µM
- IC50 [2, 7]: > 400 µM

Compound: CCCC(=O)N[C@@H](Cc1ccc(O)cc1)C(=O)NCCCNCCCCNCCCN [Compound 6]
- IC50 ([1]; Homo sapiens, MCF7, 24 h): > 400 µM
- IC50 ([2]; Homo sapiens, MDA-MB-231, 24 h): > 400 µM

Compound: CCCC(=O)N[C@@H](Cc1ccc(O)cc1)C(=O)NCCCCNCCCCNCCCCN [Compound 7]
- IC50 [1, 6]: > 400 µM
- IC50 [2, 7]: > 400 µM

Compound: CCCC(=O)N[C@@H](Cc1ccc(O)cc1)C(=O)NCCCCNCCCNCCCNCCCN [Compound 8]
- IC50 [1, 6]: > 400 µM
- IC50 [2, 7]: > 400 µM

Compound: C#CC[C@H](NC(=O)c1ccc(C2(C(F)(F)F)N=N2)cc1)C(=O)NCCCCNCCCNCCCN [Compound 9]
- IC50 [1, 6]: 2.63 ± 1.58 µM
- IC50 [2, 7]: > 200 µM

Compound: NCCCNCCCNCCCNCCCCNC(=O)Cc1c[nH]c2ccccc12 [HO-416b]
- times more cytotoxic than Agel 416 ([1]; MCF-7 cells): ~6 times
- times less cytotoxic to the MDA-MB-231 cells than the MCF-7 cells [2]: ~44 times
- viability (in vitro; 0.1 μΜ): 92.5%
- viability (in vitro; 1 μΜ): 89.7%
- viability (in vitro; 10 μΜ): 77.5%
- viability (in vitro; 100 μΜ): 50.8%
- IC50 [3]: 97.2 µM
- selectivity index (SI) for the MCF-7 cells [3]: ~1080
- selectivity index (SI) for the MDA-MB-231 cells [3]: ~24
- times more cytotoxic than Agel 416 ([3]; MCF-12A cells): ~1.9 times
- IC50 [4]: 0.09 ± 0.012 µM
- IC50 [5]: 3.98 ± 0.064 µM

Compound: NCCCNCCCCNCCCNCCCNC(=O)Cc1c[nH]c2ccccc12 [Agel 416]
- times less cytotoxic to the MDA-MB-231 cells than the MCF-7 cells [2]: 6 times
- viability (in vitro; 0.1 μΜ): 95.4%
- viability (in vitro; 1 μΜ): 84.3%
- viability (in vitro; 10 μΜ): 63.5%
- viability (in vitro; 100 μΜ): 69%
- IC50 [3]: 184 µM
- selectivity index (SI) for the MCF-7 cells [3]: ~335
- selectivity index (SI) for the MDA-MB-231 cells [3]: ~56
- IC50 [4]: 0.55 ± 0.02 µM
- IC50 [5]: 3.31 ± 0.08 µM

Compound: NCCCNCCCCNCCCNC(=O)Cc1c[nH]c2ccccc12 [Compound 1]
- IC50 [1, 6]: > 200 µM
- IC50 [2, 7]: > 200 µM

Compound: CCCC(=O)N[C@H](C(=O)NCCCCNCCCNCCCN)[C@@H](C)O [Compound 4]
- IC50 [1, 6]: > 400 µM
- IC50 [2, 7]: > 400 µM

Compound: O=C(O)Cc1c[nH]c2ccccc12 [Compound 21, (indol-3-yl)acetic acid, reference compound]
- IC50 [1, 6]: 366 ± 73 µM
- IC50 [2, 7]: 262 ± 42 µM

Compound: NCCCCNC(=O)Cc1c[nH]c2ccccc12 [Compound 3]
- IC50 [1, 8]: 272 ± 11.2 µM
- IC50 [1, 6]: 272 µM
- IC50 [2, 8]: 107 µM
- IC50 [2, 7]: 170 µM

Compound: NCCCNCCCCNC(=O)Cc1c[nH]c2ccccc12 [Compound 2]
- IC50 [1, 6]: 3.15 ± 0.25 µM
- times less active than HO-416b ([1]; MCF-7 cells): 35 times
- times more active than the mere combination of 21 and Spd ([1]; MCF-7 cells): ~42 times
- IC50 [2, 7]: 12.6 ± 0.57 µM
- times less active than HO-416b ([2]; MDA-MB-231 cells): 4 times
- times more active than the mere combination of 21 and Spd ([2]; MDA-MB-231 cells): ~22 times
